In patent US9399645B2, “Inhibitors of HIV replication” (Boehringer Ingelheim International GmbH, priority 2011, dated 2016):

Legend:
[1] = Caco-2 Permeability Assay; assay type: in vitro ADME; details: human; for Papp A→B at 10 μM: apparent permeability A to B, compound at 10 μM, apical buffer pH 6.0, basolateral buffer pH 7.4, read-out: Papp (cm/sec, *10^−6)
Description: Caco-2 Permeability Assay Caco-2 cells are purchased from Cell Culture Services as frozen instant cells at a concentration of 1*10^7 cells/vial. DMEM+glutamax-I culture media is purchased from Gibco (10569). Fetal bovine serum (FBS) is purchased from HyClone (SH30396.03). Pennicilin/Streptomycin antibiotics are purchased from Gibco (15140). MEM non-essential amino acids are purchased from Gibco (11140). Hank's balanced salt solution (HBSS) is purchased from Gibco (14025). Bovine serum albumin (BSA) is purchased from Sigma-Aldrich (A7906). MES low moisture is purchased from Sigma-Aldrich (M3671). HEPES is purchased from Sigma-Aldrich (H3375). Dimethyl Sulfoxide (DMSO) is purchased from EMD (MX1457-6). Complete DMEM media is prepared by adding 1 L of FBS, 100 mL of pen/strep and 110 mL of MEM non essential amino acids to 10 L of DMEM+glutamax-I. […] Caco-2 cells are seeded on HTS transwell 24-well plates purchased from Corning (3397). These polycarbonate membrane plates have a diameter of […] and pore size of 0.4 μm. The Caco-2 cells vial is thawed in a 37° C. water bath until only a small ice pellet is left. The vial is then transferred to the laminar flow hood and its exterior is extensively washed with 70% ethanol. The total content of the vial (2 mL) is transferred into a 50 mL tube containing 38 mL of complete DMEM. […] The seeding is done by the Hamilton star robotic station which is controlled with the Venus program. Each well will receive 600 μL of complete DMEM on its basolateral side and 200 μL of cells on its apical side. Each well receives 50 000 cells. The 24-well plates are then returned to an automated Liconic STX110 incubator set at 37° C., 5% CO2 and 100% humidity. The culture media for the cells is changed every two days except on weekends. These cells are maintained for a period of two weeks prior to the running of the permeability assay. Permeability assays are usually performed between day 15 and 18 after the initial seeding. […] Controls for the assay are mannitol for tight junction determination and Digoxin for efflux transporter (p-glycoprotein) expression. On the day of the assay, each compound is diluted to 10 μM in the buffer (apical for A to B). 6 μl of the 5 mM DMSO stock is added to 3 mL of the buffer in a 24-well 10 mL deep plate covered with a lid. The plate containing all the diluted compounds is spun for 10 min at 3000 rpm in a Rotanta 46 RSC centrifuge from Hettich to remove unsoluble compound. This dilution is used to add at the start of the incubation. Each compound is tested in duplicate. On the day of the assay, the culture media of the 24-well plate is removed and replaced with warm HBSS. The HBSS is then also removed and the Apical and Basolatral buffer are added to their respective side of the transwells. These steps are performed by the Hamilton Star robotic station. The plate is then placed in a 37° C. incubator and is left to equilibrate for 30 min. After 30 min of incubation a background sample (25 μL from each well) is taken from the receiver side (Basolateral for A to B), and replenished with warm buffer. These samples and all others afterwards are kept in a 96-well 1 mL plate. To start the assay, the donor compartment (apical for A to B) is emptied and replaced with new buffer containing the compound at 10 μM. Once the compounds are added, the plate is returned to the 37° C. incubator and the timer is started. In order to determine how much compound is actually added to each well, a 50 μL sample is taken from each compound dilution, this sample is refered to as the load. These steps and the following are performed by the Tecan Freedom EVO robotic station controlled via the Gemini software. For A-to-B Assay: Samples (190 μL) are taken from each basolateral (receiver) chamber at time points 0, 60, 120 and 180 min or at time points 0, 30, 60 and 90 min. From the 190 μL taken, 50 μL is transferred to the receiving plate and 140 μL is discarded.

HIV-1 = assay: C8166 HIV-1 Luciferase Assay (EC50); assay type: cell-based; details: Human immunodeficiency virus 1, C8166, 72 h
Procedure: C8166 HIV-1 Luciferase Assay (Ec50)
The assay used to measure inhibition of HIV replication is as described in WO 2004/050643, pages 73-75, incorporated herein by reference, with the following modifications:
Serial dilutions of HIV-1 inhibitors are prepared in complete media from DMSO stock solutions. Eleven serial dilutions of desired concentration are prepared in a 1 mL deep well titer plate (96 wells). The 12th well contains complete media with no inhibitor and serves as the positive control. All samples contain the same concentration of DMSO (<0.1% DMSO). Inhibitor is added, to triplicate wells, of a 96 well tissue culture treated clear view black microtiter plate (Corning Costar catalogue #3904). The total volume per well is 200 μL of media containing the cells and inhibitor. The last row is reserved for uninfected C8166 LTRIuc cells to serve as the background blank control and the first row is media alone.
Count C8166 LTRIuc cells and place in a minimal volume of complete RPMI 1640 in a tissue culture flask (ex. 30×10^6 cells in 10 mL media/25 cm^2 flask). Infect cells with HIV-1 at a moi of 0.005. Incubate cells for 1.5 h at 37° C. on a rotating rack in a 5% CO2 incubator. Resuspend cells in complete RPMI to give a final concentration of 25,000-cells/well. Add cells to wells of 96 well microtiter plate containing inhibitors. Add 25,000 uninfected C8166-LTRIuc cells/well in 200 μL complete RPMI to last row for background control. Incubate cells at 37° C. in 5% CO2 incubator for 3 days.
50 μL Steady Glo (luciferase substrate T112=5 hours Promega catalogue # E2520) is added to each well of the 96 well plate. The relative light units (RLU) of luciferase are determined using a luminescence plate reader. The calculated % inhibition values are used to determine EC50, slope factor (n) and maximum inhibition (Imax).

Row | SMILES | Papp A→B [1] [×10⁻⁶ cm/s] | EC50 (HIV-1) [nM] | Papp A→B at 10 μM [1] [×10⁻⁶ cm/s]
1 | CC[C@H]1C[C@@H](n2c(=O)nc(-c3cnn(C)c3)c3oc4cnc(-c5cnn(C)c5)cc4c32)CCO1 [Compound 1076] | 17.9 | 5.9 | –
2 | CC[C@H]1C[C@@H](n2c(=O)nc(-c3ccc(NC)nc3)c3oc4cnc(-c5cnn(C)c5)cc4c32)CCO1 [Compound 1077] | – | 6 | 14.7
3 | CC[C@H]1C[C@@H](n2c(=O)nc(-c3cnn(C)c3)c3oc4nc(C)c(-c5cnco5)cc4c32)CCO1 [Compound 1080] | – | 120 | 12.4
4 | CC[C@H]1C[C@@H](n2c(=O)nc(-c3cnn(C)c3)c3oc4c(C)nc(-c5cnn(C)c5)cc4c32)CCO1 [Compound 1082] | – | 3.3 | 18.9
5 | CC[C@H]1C[C@@H](n2c(=O)nc(-c3cnn(C)c3)c3oc4ncc(-c5cccnc5)cc4c32)CCO1 [Compound 1083] | – | 41 | 12.5
6 | C[C@@H]1C[C@H](n2c(=O)nc(-c3cnn(C)c3)c3oc4cnc(-c5cnn(C)c5)cc4c32)C[C@H](C)O1 [Compound 1084] | – | 120 | 20.5
7 | CC[C@H]1C[C@@H](n2c(=O)nc(-c3cnn(C)c3)c3oc4cnc(-c5cnn(CCOC)c5)cc4c32)CCO1 [Compound 1085] | – | 120 | 19.2
8 | CC[C@@H]1C[C@H](n2c(=O)nc(-c3cnn(C)c3)c3oc4cnc(-c5cccnc5)cc4c32)CCO1 [Compound 1086] | – | 18 | 22.5
9 | CC[C@H]1C[C@@H](n2c(=O)nc(-c3cnn(C)c3)c3oc4cnc(-c5cnn(C)c5)cc4c32)CCCO1 [Compound 1087] | – | 9.7 | 23.1
10 | CC[C@H]1C[C@@H](n2c(=O)nc(-c3cnn(C)c3)c3oc4cnc(-c5cnc(C)o5)cc4c32)CCO1 [Compound 1088] | – | 36.2 | 22.9
11 | CC[C@H]1C[C@@H](n2c(=O)nc(-c3cnn(C)c3)c3oc4cnc(-c5cnco5)cc4c32)CCO1 [Compound 1089] | – | 30 | 18.6
12 | CC[C@H]1C[C@@H](n2c(=O)nc(-c3cnn(C)c3)c3oc4cnc(-n5ccnc5)cc4c32)CCO1 [Compound 1090] | – | 160 | 8.7
13 | CC[C@H]1C[C@@H](n2c(=O)nc(-c3cnn(C)c3)c3oc4ccc(-c5cn(C)cn5)cc4c32)CCO1 [Compound 1091] | – | 15.4 | 7.9
14 | CC[C@H]1C[C@@H](n2c(=O)nc(-c3cnn(C)c3)c3oc4cc(C#N)c(-c5cn(C)cn5)cc4c32)CCO1 [Compound 1094] | – | 9.1 | 8.3
15 | CC[C@H]1C[C@@H](n2c(=O)nc(-c3cnn(C)c3)c3oc4ccc(-c5cn(C)cn5)nc4c32)C[C@@H](C)O1 [Compound 1095] | – | 8.6 | 39.8
16 | CC[C@H]1C[C@@H](n2c(=O)nc(-c3cnn(C)c3)c3oc4c(F)cc(-c5cn(C)cn5)cc4c32)CCO1 [Compound 1097] | – | 3.9 | 37.1
17 | CC[C@H]1C[C@@H](n2c(=O)nc(-c3cnn(C)c3)c3oc4c(C#N)cc(-c5cn(C)cn5)cc4c32)CCO1 [Compound 1098] | – | 9.9 | 5.3
18 | CC[C@H]1C[C@@H](n2c(=O)nc(-c3ccc(OC)nc3)c3oc4ccc(-c5cn(C)cn5)nc4c32)CCO1 [Compound 1100] | – | 6.2 | 29.3
19 | CC[C@H]1C[C@@H](n2c(=O)nc(-c3ccc(OC)cn3)c3oc4ccc(-c5cn(C)cn5)nc4c32)CCO1 [Compound 1101] | – | 17 | 32
20 | CC[C@H]1C[C@@H](n2c(=O)nc(-c3ccccn3)c3oc4ccc(-c5cn(C)cn5)nc4c32)CCO1 [Compound 1102] | – | 57 | 24.6
21 | CC[C@H]1C[C@@H](n2c(=O)nc(-c3cnn(C)c3)c3oc4cnc(-c5cn(C)cn5)cc4c32)C[C@@H](C)O1 [Compound 1103] | – | 56 | 18.5
